The values below come from PubChem BioAssay (NCI).

Structures are written as SMILES.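 Tested at 5 concentrations; 48 h exposure; 96-well plates; endpoints linearly interpolated, else capped at highest concentration. The concentration for 50% growth inhibition is given as GI50. Definition used: TGI = concentration required for complete inhibition of growth.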

Holding throughout (assay): NCI anticancer screen, dose series, 48 h
For test [1], the system named is OVCAR-3 ovarian.
The test system of test [2] is HCC-2998 colon.
For test [3], the system named is HCT-15 colon.
Test [4] concerns U251 CNS.
The test system of test [5] is LOX IMVI melanoma.
Test [6] deals with SN12C renal.
Test [7] deals with NCI-H226 lung.
Test [8] concerns UO-31 renal.
In test [9] the test system is HCT-116 colon.
The subject of test [10] is TK-10 renal.

In the case of `Nc1n[nH]c(N)c1N=Nc1ccc(O)cc1`, the GI50 is 22.7 µM in test [1]; 29.4 µM in [2]; 24.2 µM in test [3]; 21.2 µM in [4]; 4.09 µM in test [5]; 23.3 µM in test [6]. For the same compound, the GI50 in test [7] is 17.7 µM; in test [8], 13.7 µM; in test [9], 18.9 µM; in test [10], 25.7 µM. Also, the TGI in [1] is 69.7 µM; in [2], above 100 µM; in test [3] it was 90.6 µM; in [4] it was 86.2 µM; in test [5], 53.6 µM; in test [6] it was above 100 µM. Also, the TGI in test [7] stood at 67.5 µM; in test [8] it was 66.3 µM; in test [9], 89.9 µM; in test [10], 70.4 µM.
As for `O=C1CCC(N2C(=O)c3cccc(NCCCC4CCN(CCNC(=O)c5cc6c(o5)C(=O)c5ccccc5C6=O)CC4)c3C2=O)C(=O)N1` (stereo not given), the GI50 was 0.218 µM in test [1]; 0.695 µM in test [2]; 0.825 µM in test [3]; 1.14 µM in [4]; 0.288 µM in test [5]; 0.252 µM in test [6]. For the same compound, the GI50 in [7] is 1.42 µM; in test [8], 1.37 µM; in [9], 0.465 µM; in test [10] it was 2.25 µM. Further, the TGI came to 0.761 µM in test [1]; 1.81 µM in test [2]; 2.41 µM in test [3]; 2.45 µM in [4]; 1.13 µM in test [5]; 0.806 µM in [6]. Besides, the TGI amounted to 3.76 µM in test [7], 2.91 µM in test [8], 2.38 µM in [9] and 4.4 µM in test [10].
Turning to `CC1=C(C(=O)Nc2ccc(F)c(Cl)c2)C(c2ccccc2O)NC(=O)N1` (stereo not given), the GI50 in test [1] is 65.4 µM; in [2], above 100 µM; in test [3], above 100 µM; in [4], above 100 µM; in test [5] it was 80.5 µM; in [6], above 100 µM. The GI50 in test [7] was above 100 µM; in [8], 80.7 µM; in test [9] it was 51.7 µM; in test [10] it was 32.4 µM. Besides, the TGI in [1], in test [2], in test [3], in test [4], in [5] and in test [6] was above 100 µM in each case. Moreover, the TGI is above 100 µM in test [7], above 100 µM in test [8], above 100 µM in [9] and 67.9 µM in test [10].
Take `O=C1CSC(c2ccccc2O)N1c1nnc(Cn2ccnc2)o1` (stereo not given): the GI50 in [1] is 3.04 µM; in [2], 22.8 µM; in [3] it was 3.04 µM; in test [4], 11.7 µM; in [5], 6.58 µM; in test [6], 12.8 µM. Further, the GI50 is 37.2 µM in test [7], 4.35 µM in [8], 9.86 µM in test [9] and 14.1 µM in test [10]. For the same compound, the TGI in test [1] was 16.4 µM; in test [2] it was 89.5 µM; in test [3], above 100 µM; in test [4] it was 63.6 µM; in [5], 24.8 µM; in test [6], above 100 µM. In addition, the TGI in [7] is above 100 µM; in test [8], above 100 µM; in [9] it was 43.7 µM; in [10], above 100 µM.
Turning to `CCN(CC)C(=O)COc1cc2c(O)c3c(O)c(C)c4c(c13)C(=O)C(C)(OC=CC(OC)C(C)C(OC(C)=O)C(C)C(O)C(C)C(O)C(C)C=CC=C(C)C(=O)N2)O4` (stereo not given), the TGI in test [1], in test [2], in [3], in test [4], in [5] and in test [6] was above 100 µM each time. Moreover, the TGI in test [7], in test [8], in test [9] and in [10] was above 100 µM in each case.
Take `COc1cc(/C=C/[N+](=O)[O-])cc(OC)c1OC`: the GI50 was 2.81 µM in test [1]; 1.82 µM in test [2]; 1.96 µM in test [3]; 2.86 µM in [4]; 1.39 µM in test [5]; 2.51 µM in [6]. In addition, the GI50 was 2.1 µM in test [7], 2.05 µM in test [8], 1.89 µM in [9] and 2.49 µM in test [10]. Also, the TGI is 6.63 µM in test [1]; 3.31 µM in test [2]; 5.04 µM in test [3]; 10.9 µM in test [4]; 2.91 µM in test [5]; 9.26 µM in test [6]. Besides, the TGI in test [7] is 5.5 µM; in test [8], 3.91 µM; in test [9], 3.56 µM; in [10], 6.07 µM.
Regarding `Oc1c(Cl)cc(Cl)c2cccnc12`, the GI50 was 3.17 µM in test [1]; 10.1 µM in test [2]; 4.73 µM in test [3]; 2.67 µM in test [4]; 2.18 µM in [5]; 3.39 µM in test [6]. Besides, the GI50 in test [7] is 3.15 µM; in test [8], 2.5 µM; in test [9], 2.97 µM; in test [10] it was 5.56 µM. Also, the TGI in test [1] amounted to 11.6 µM; in [2], 26 µM; in [3], 25.9 µM; in test [4], 55 µM; in test [5] it was 15.7 µM; in test [6], 51.8 µM. Further, the TGI in test [7] was found to be 14.7 µM; in test [8] it was 9.31 µM; in test [9], 10.1 µM; in test [10], 30.8 µM.
On to `N#CC(C#N)=C(N)/C(C#N)=C/c1ccc2[nH]ccc2c1`, for which the TGI in test [1], in test [2], in [3], in test [4], in test [5] and in test [6] was above 100 µM throughout. The TGI in test [7], in test [8], in test [9] and in test [10] was above 100 µM each time.
